Source: paper PMC8587849, “Antimicrobial and Anticancer Application of Silver(I) Dipeptide Complexes” (Molecules, 2021)
“And” between values parts separate entries of the source, which are not always exact repeats. Identical values can stand only once. Like-named read-outs stand apart in the source and are kept apart here. Where a SMILES comes first, the peptide text is derived from it.

What was measured:
MCF-7 = assay: MTS antiproliferative assay; assay type: cell-based, human; details: 72 h
Experimental: (§1) After 72 h of incubation, 10 µL of MTS was added to each well. […] IC50 values were calculated from MTS analyses.

HeLa = assay: MTS antiproliferative assay; assay type: cell-based, human; details: 72 h
Experimental: as §1

[1] = tested on: Escherichia coli (E. coli) CCM 3988; assay: Antibacterial activity, macrodilution method; assay type: cell-based; details: for IC50 and MIC90 (class symbol): free ligands
Experimental: (§4) Cultures of bacteria (in Mueller-Hinton broth, MHB) and yeasts (in Sabouraud’s growth medium, SB) were incubated under shaking (250 rpm) at 37 °C. The growth of bacteria and yeasts was evaluated by measuring the absorbance of the growing cultures (A550) until the cultures reached the stationary growth phase. […] The final concentration of DMSO never exceeded 1.0 vol. % in the control or treated samples. […] The IC50 and MIC90 with respect to MIC80 values were evaluated from toxicity curves.

BJ-5ta = assay: MTS assay on fibroblasts; assay type: cell-based; details: BJ-5ta human skin fibroblasts, 72 h
Experimental: as §1

[2] = tested on: Candida parapsilosis ATCC 22019; assay: Antifungal activity (yeast), macrodilution method; assay type: cell-based; details: C. parapsilosis
Experimental: as §4

[3] = tested on: Microsporum gypseum CCM F-8342; assay: Antifungal activity (filamentous fungi), macrodilution on solidified PDA; assay type: cell-based; details: M.gypseum
Experimental: (§5) Cultures of bacteria (in Mueller-Hinton broth, MHB) and yeasts (in Sabouraud’s growth medium, SB) were incubated under shaking (250 rpm) at 37 °C. The growth of bacteria and yeasts was evaluated by measuring the absorbance of the growing cultures (A550) until the cultures reached the stationary growth phase. […] During culturing, the diameters of growing fungal colonies were measured at regular intervals [71, 72]. […] The final concentration of DMSO never exceeded 1.0 vol. % in the control or treated samples. […] The IC50 and MIC90 with respect to MIC80 values were evaluated from toxicity curves.

BLM = assay: MTS antiproliferative assay; assay type: cell-based, human; details: for IC50: BLM, MTS, 72 h
Experimental: (§2) Cells were maintained in standard conditions with an atmosphere containing 5% CO2 at 37 °C.
as §1

HCT116 = assay: MTS antiproliferative assay; assay type: cell-based, human; details: 72 h
Experimental: as §2, §1

MDA-MB-231 = assay: MTS antiproliferative assay; assay type: cell-based, human; details: 72 h
Experimental: as §2, §1

Jurkat = assay: MTS antiproliferative assay; assay type: cell-based, human; details: 72 h
Experimental: as §2, §1

[4] = tested on: Staphylococcus aureus CCM 3953; assay: Antibacterial activity, macrodilution method; assay type: cell-based; details: S. aureus; for IC50 and MIC90 (class symbol): free ligands
Experimental: as §4

[5] = tested on: Rhizopus oryzae CCM F-8284; assay: Antifungal activity (filamentous fungi), macrodilution on solidified PDA; assay type: cell-based
Experimental: as §5

[6] = tested on: Alternaria alternata CCM F-128; assay: as above; assay type: cell-based; details: A. alternata
Experimental: as §5

A.flavus = assay: Antifungal activity (filamentous fungi); assay type: cell-based; details: read-out: IC50 and MIC100 (class symbol)
Experimental: as §5

Candida albicans SC 5314 = assay: Antifungal activity (yeast), macrodilution method; assay type: cell-based; details: C. albicans
Experimental: as §5

[7] = tested on: methicillin-resistant Staphylococcus aureus L12; assay: Antibacterial activity, macrodilution method; assay type: cell-based; details: for IC50 and MIC90 (class symbol): S. aureus L12, free ligands
Experimental: as §4

[8] = tested on: Staphylococcus epidermidis CCM 7221; assay: Antibacterial activity, macrodilution method; assay type: cell-based; details: S.epidermidis; for IC50 and MIC90 (class symbol): free ligands
Experimental: as §4

S. aureus biofilm = assay: Influence on S. aureus biofilm formation, crystal violet staining; assay type: cell-based; details: for A570 (biofilm, crystal violet): control A570 = 0.47; for I: biofilm intensity: control strong
Experimental: The biofilm was qualified by the crystal violet staining method. Briefly, overnight cultures of bacteria S.aureus (in MHB) and yeasts C.parapsislosis (in SB) were prepared. The fresh prepared growth media MHB and SB were inoculated with the overnight culture for a final concentration of 5 × 10^6 cells mL^−1. The microbial biofilm was formed in 96-well microplates for adherent cells. […] Prepared cultures were incubated for 2 h at 37 °C. […] The treatment with DMSO (solvent) alone served as a control. The inoculated microplates were incubated at 37 °C for the next 46 h. […] Microplates with mature biofilm were decanted and washed using 200 μL of saline solution. The plate was left for 15 min to dry completely at laboratory temperature. Then, 110 μL of 0.4% crystal violet dye was added to each well, and the plate was incubated for 15 min at laboratory temperature. After the decantation, the plate was washed 3 times with 200 μL of saline solution. Then, 200 μL of 96% ethanol was added. The microplate was left to incubate for 15 min at laboratory temperature. After the transfer of the well content to a clean microplate, the absorbance (570 nm) of released crystal violet (proportionate to biofilm cell density) was measured,, and the values were evaluated as weak biofilm formation A570 <0.1; 0.199>, medium biofilm formation A570 <0.2; 0.3>, strong biofilm formation A570 <0.301; 0.999>, or very strong biofilm formation A570 ≥ 1.00.

CT DNA–HO system = assay: Fluorescence competitive binding with Hoechst 33258; parameters: species or system calf; details: displacement of Hoechst 33258 from CT DNA; 462 nm; 10 mM Tris-HCl pH 7.4
Experimental: The fluorescence competitive binding studies of silver(I) complexes with Hoechst 33 258 (HO) were performed on a Varian Cary Eclipse spectrophotometer. The emission spectra of DNA–HO were measured in the range of 400–550 nm using an excitation wavelength of 343 nm with a slit width of 5 nm for the excitation and 5 nm for the emission beam. […] Ksv quenching constant was determined according to the classical Stern-Volmer Equation (1) in [63, 75]:F0/F = 1 + KSV [Q](1) where F0 and F are the fluorescence intensities in the absence and the presence of the quencher at 462 nm, KSV is the Stern-Volmer quenching constant and [Q] is the concentration of the quencher.

MDA-MB-231 cells = assay: Cell cycle analysis by flow cytometry; assay type: cell-based, human; details: treated with IC50
Experimental: (§3) Prior to each analysis, cells were washed in PBS, followed by resuspending in staining solution (0.5 mg/mL ribonuclease A, 0.2% final concentration Triton X-100, propidium iodide 0.025 mg/mL in 500 µL PBS) (all Sigma Aldrich), and incubated for 30 min at room temperature in the dark. For analysis of stained cells, a BD FACSCalibur flow cytometer (BD Bio-sciences) was used. A minimum of 1 × 10^4 events were analysed per analysis.

BLM cells = assay: Cell cycle analysis by flow cytometry; assay type: cell-based, human; details: treated with IC50
Experimental: as §3

HCT116 cells = assay: Cell cycle analysis by flow cytometry; assay type: cell-based, human; details: treated with IC50
Experimental: as §3

Jurkat cells = assay: Cell cycle analysis by flow cytometry; assay type: cell-based, human; details: treated with IC50
Experimental: as §3

CT DNA = assay: UV-Vis absorption titration with CT DNA; assay type: binding, calf; details: 0.01 M Tris-HCl pH 7.4; complex 7.85 × 10^−5 M
Experimental: UV–vis spectra were measured in 0.01 M Tris-HCl buffer (pH 7.4) using a Varian Cary 100 Bio spectrophotometer in the range of 230–320 nm and recorded at room temperature (24 °C) using a quartz cuvette of 1 cm path length. The concentration of investigated Ag(I) complexes was 7.85 × 10^−5 M. During the titration, an aliquot of buffered CT DNA solution was added to each cuvette (sample and reference) to eliminate the absorbance of DNA itself. The DNA concentration per nucleotide was determined by absorption spectroscopy using the molar absorption coefficient (6600 M^−1cm^−1) at 260 nm.

[9] = read-out: IC50 and MIC100 (class symbol)

With `C[C@H](NC(=O)CN)C(=O)O` [HGlyAla, Glycyl-L-Alanine, reference compound] (H-Gly-Ala-OH) the IC50 (MCF-7) was over 300 µM, the IC50 (HeLa) was over 300 µM and the “IC50 and MIC90 (class symbol)” value [1] was “N (N- not active IC50 and MIC90 values > 2 mmol.l-1)”. For the same compound, the IC50 (BJ-5ta) was over 300 µM, the “IC50 and MIC80 (class symbol)” value [2] was “N (N- not active IC50 and MIC values > 2 mmol.l-1)” and the IC50 [3, 9] was over 2000 µM. It also gave an IC50 (BLM) of over 300 µM, an IC50 (HCT116) of over 300 µM and an IC50 (MDA-MB-231) of over 300 µM. For the same compound, the IC50 (Jurkat) was over 300 µM, the “IC50 and MIC90 (class symbol)” value [4] was “N (N- not active IC50 and MIC90 values > 2 mmol.l-1)” and the IC50 [5, 9] was over 2000 µM. The IC50 [6, 9] was over 2000 µM, the IC50 (A.flavus) was over 2000 µM and the “IC50 and MIC80 (class symbol)” value (Candida albicans SC 5314) was “N (N- not active IC50 and MIC values > 2 mmol.l-1)”. The “IC50 and MIC90 (class symbol)” value [7] was “N (N- not active IC50 and MIC90 values > 2 mmol.l-1)” and the “IC50 and MIC90 (class symbol)” value [8] was “N (N- not active IC50 and MIC90 values > 2 mmol.l-1)”.

`NCC(=O)NCC(=O)O` [HGlyGly, Glycyl-L-Glycine, reference compound] (H-Gly-Gly-OH) was tested, and the “IC50 and MIC90 (class symbol)” value [1] was “N (N- not active IC50 and MIC90 values > 2 mmol.l-1)”, the “IC50 and MIC80 (class symbol)” value [2] was “N (N- not active IC50 and MIC values > 2 mmol.l-1)” and the IC50 [3, 9] was over 2000 µM. For the same compound, the “IC50 and MIC90 (class symbol)” value [4] was “N (N- not active IC50 and MIC90 values > 2 mmol.l-1)”, the IC50 [5, 9] was over 2000 µM and the IC50 [6, 9] was over 2000 µM. For the same compound, the IC50 (A.flavus) was over 2000 µM, the “IC50 and MIC80 (class symbol)” value (Candida albicans SC 5314) was “N (N- not active IC50 and MIC values > 2 mmol.l-1)” and the “IC50 and MIC90 (class symbol)” value [7] was “N (N- not active IC50 and MIC90 values > 2 mmol.l-1)”. The “IC50 and MIC90 (class symbol)” value [8] was “N (N- not active IC50 and MIC90 values > 2 mmol.l-1)”.

`N.N.[Cl][Pt][Cl]` [cisPt, cisplatin] gave an IC50 (MCF-7) of 29.7 µM, an IC50 (HeLa) of 35.4 µM and an IC50 (BJ-5ta) of 37.9 µM. The IC50 (BLM) was 29.5 µM, the IC50 (HCT116) was 7.4 µM and the IC50 (MDA-MB-231) was 7.1 µM. The IC50 (Jurkat) was 6.3 µM.

For [Ag2(GlyAla)(NO3)2]n [AgGlyAla], the IC50 (MCF-7) was 7.5 µM, the IC50 (HeLa) was 33.2 µM and the IC50 [1] was 6 µM. The MIC90 [1] was 9 µM, the IC50 (BJ-5ta) was 40.2 µM and the IC50 [2] was 30 µM. It also gave an MIC80 [2] of 60 µM, an IC50 ([3]; read-out: IC50) of 75 µM and an MIC100 ([3]; suffix s = fungistatic) of 100 µM. The IC50 (BLM) was 10.9 µM, the “Selectivity index (SI)” value (BLM; ratio of IC50 values BJ-5ta/BLM) was 3.7 and the IC50 (HCT116) was 28 µM. The IC50 (MDA-MB-231) was 7.4 µM, the IC50 (Jurkat) was 9.7 µM and the “A570 (biofilm, crystal violet)” value (S. aureus biofilm; complex concentration 5 µM) was 0.51. The “I: biofilm intensity” value (S. aureus biofilm; complex concentration 5 µM) was “strong (strong biofilm formation A570 <0.301; 0.999>)”, the “A570 (biofilm, crystal violet)” value (S. aureus biofilm; complex concentration 10 µM) was 0.41 and the “I: biofilm intensity” value (S. aureus biofilm; complex concentration 10 µM) was “strong (strong biofilm formation A570 <0.301; 0.999>)”. For the same compound, the “A570 (biofilm, crystal violet)” value (S. aureus biofilm; complex concentration 25 µM) was 0.25, the “A570 (biofilm, crystal violet)” value (S. aureus biofilm; complex concentration 50 µM) was 0.23 and the “A570 (biofilm, crystal violet)” value (S. aureus biofilm; complex concentration 100 µM) was 0.25. The “I: biofilm intensity” value (S. aureus biofilm; complex concentration 100 µM) was “medium (medium biofilm formation A570 <0.2; 0.3>)”, the “KSV (Stern-Volmer quenching constant)” value (CT DNA–HO system) was 7.97 ± 0.03 × 10^4 M^−1 and the IC50 [4] was 7 µM. The MIC90 [4] was 11 µM, the “cells in G2/M” value (MDA-MB-231 cells; 24 h) was 22.8 ± 2.5% and 22.8% and the “cells in S” value (MDA-MB-231 cells; 24 h) was 11.2 ± 2.0%. The “cells in G2/M” value (MDA-MB-231 cells; 48 h) was 19.4 ± 0.1%, the “cells in S” value (MDA-MB-231 cells; 48 h) was 11.1 ± 0.7% and the “cells in G2/M” value (BLM cells; 48 h) was 28.9 ± 2.7%. For the same compound, the “cells in S” value (BLM cells; 48 h) was 19.5 ± 0.1%, the “cells in G2/M” value (BLM cells; 72 h) was 27.3 ± 1.3% and the “cells in S” value (BLM cells; 72 h) was 18.8 ± 0.4%. For the same compound, the “cells in G2/M” value (HCT116 cells; 48 h) was 14.0 ± 0.4%, the “cells in S” value (HCT116 cells; 48 h) was 7.0 ± 0.3% and the “cells in G2/M” value (HCT116 cells; 72 h) was 7.6 ± 1.7%. The “cells in S” value (HCT116 cells; 72 h) was 8.1 ± 1.2%, the “cells in G2/M” value (Jurkat cells; 48 h) was 17.9 ± 1.8% and the “cells in S” value (Jurkat cells; 48 h) was 12.6 ± 0.5%. For the same compound, the “cells in G2/M” value (Jurkat cells; 72 h) was 10.3 ± 3.1%, the “cells in S” value (Jurkat cells; 72 h) was 12.1 ± 1.8% and the IC50 ([5]; read-out: IC50) was 30 µM. It also gave an MIC100 ([5]; suffix s = fungistatic) of 50 µM, an IC50 ([6]; read-out: IC50) of 42 µM and an MIC100 ([6]; suffix s = fungistatic) of over 100 µM. The IC50 (A.flavus) was over 100 µM, the IC50 (Candida albicans SC 5314) was 50 µM and the MIC80 (Candida albicans SC 5314) was 87 µM. The IC50 ([7]; S. aureus L12 (MRSA)) was 9 µM, the MIC90 ([7]; S. aureus L12 (MRSA)) was 20 µM and the Hypochromism (CT DNA) was 40.7%. For the same compound, the “Δλmax (red shift on addition of CT DNA)” value (CT DNA) was 9 nm, the IC50 [8] was 8 µM and the MIC90 [8] was 10 µM.
